Some test systems named below: CAKI-1; SF-295; UACC-257; HT-29; HOP-92; EKVX; SW-620; SF-268; NCI-H23; RPMI-8226; A498; A549; OVCAR-5; MOLT-4; LOX IMVI; Malme-3M; KM12; OVCAR-8; SK-MEL-2; SNB-19.
Common to all, as to assay: NCI tumour cell line growth inhibition, 48 h

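Growth conditions: 96-well plates. Treatment: test compound, 48 hours, 5 concentrations. Analysis: linear interpolation between bracketing concentrations; unreached endpoints set to highest concentration. Here, GI50 denotes the concentration required for 50% inhibition of growth.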 Active and inactive are the calls of the source. Cut-off read from the data, not from the text of the source: active = GI50 up to about 1.1 µM and inactive = higher.

Turning to `CO[C@H]1C=C[C@@]23c4cc5c(cc4CO[C@]2(O)CN(C)[C@H]3C1)OCO5`, the GI50 with CAKI-1, in the experiment on SF-295, with UACC-257, in the experiment on HT-29, with HOP-92 and in the experiment with EKVX was > 100 µM (inactive) throughout. In addition, the GI50 in the experiment with SW-620, in the experiment with SF-268, in the experiment with NCI-H23, with RPMI-8226, in the experiment with A498 and in the experiment with A549 was > 100 µM (inactive) each time. Further, the GI50 in the experiment with OVCAR-5, in the experiment with MOLT-4, in the experiment with LOX IMVI, in the experiment on Malme-3M, in the experiment on KM12 and in the experiment on OVCAR-8 was > 100 µM (inactive) throughout. Besides, the GI50 with SK-MEL-2 and in the experiment on SNB-19 was > 100 µM (inactive) throughout.

As for `NC(Cc1c[nH]c2ccccc12)C(=O)O` (stereo not drawn) [DL-TRYPTOPHAN], the GI50 with CAKI-1, with SF-295, in the experiment on UACC-257, with HT-29, in the experiment on HOP-92 and with EKVX was > 300 µM (inactive) each time. Further, the GI50 with SW-620 is > 300 µM (inactive); in the experiment with SF-268 it was > 300 µM (inactive); with NCI-H23, > 300 µM (inactive); with RPMI-8226, > 300 µM (inactive); in the experiment on A498, > 13.9 µM (inactive); in the experiment on A549, > 300 µM (inactive). Also, the GI50 in the experiment on OVCAR-5 is > 300 µM (inactive); in the experiment with MOLT-4 it was > 300 µM (inactive); in the experiment with LOX IMVI it was > 300 µM (inactive); in the experiment with Malme-3M it was > 300 µM (inactive); in the experiment with KM12 it was > 300 µM (inactive); with OVCAR-8 it was 231 µM (inactive). For the same compound, the GI50 in the experiment with SK-MEL-2 and with SNB-19 was > 300 µM (inactive) throughout.

Regarding `CC1[C@@H]2CC=C3C4CCC5Cc6nc7c(nc6C[C@@]5(C)C4CC(=O)[C@]32CO[C@@]1(O)C(O)CC(C)(C)O)CC1CCC2C3=C[C@H]4O[C@@]5(O[C@@](C)(CO)C[C@@H]5O)C(C)[C@@]4(O)[C@]3(C)[C@@H](O)CC2[C@]1(C)C7` (stereo not given in full), the GI50 in the experiment with CAKI-1 was 0.0132 µM (active); with SF-295, < 0.00036 µM (active); in the experiment with UACC-257, 0.0491 µM (active); in the experiment with HT-29 it was 0.00459 µM (active); in the experiment with HOP-92 it was 0.0041 µM (active); in the experiment with EKVX, 0.000386 µM (active). For the same compound, the GI50 in the experiment on SW-620 was 0.00933 µM (active); in the experiment on SF-268, 0.00676 µM (active); with NCI-H23, 0.00308 µM (active); in the experiment with RPMI-8226 it was < 0.00036 µM (active); in the experiment on A498 it was 0.00108 µM (active); with A549, 0.0031 µM (active). For the same compound, the GI50 with OVCAR-5 was 0.00773 µM (active); in the experiment on MOLT-4 it was 0.00157 µM (active); in the experiment with LOX IMVI, 0.0069 µM (active); in the experiment with Malme-3M it was 0.0166 µM (active); with KM12, 0.0181 µM (active); in the experiment with OVCAR-8, 0.127 µM (active). For the same compound, the GI50 in the experiment with SK-MEL-2 is 0.00775 µM (active); in the experiment on SNB-19, 0.0366 µM (active).

For `CCN1CCC(O)(/C=C/c2ccc(C)cc2)C(C(=O)/C=C/c2ccc(C)cc2)C1` (stereo not given), the GI50 in the experiment on CAKI-1 is 2.78 µM (inactive); in the experiment on SF-295 it was 10.6 µM (inactive); in the experiment with UACC-257, 12.5 µM (inactive); in the experiment on HT-29, 2.61 µM (inactive); with HOP-92, 6.81 µM (inactive); in the experiment with EKVX, 13.2 µM (inactive). Besides, the GI50 in the experiment on SW-620 was 1.75 µM (inactive); in the experiment with SF-268, 9.57 µM (inactive); in the experiment with NCI-H23, 6.35 µM (inactive); in the experiment on RPMI-8226, 2.77 µM (inactive); in the experiment with A498, 10.3 µM (inactive); in the experiment on A549, 8.24 µM (inactive). Moreover, the GI50 was 10.5 µM (inactive) in the experiment on OVCAR-5; 1.63 µM (inactive) in the experiment on MOLT-4; 1.31 µM (inactive) in the experiment with LOX IMVI; 6.75 µM (inactive) with Malme-3M; 2.19 µM (inactive) in the experiment on KM12; 2.81 µM (inactive) in the experiment with OVCAR-8. The figures for the GI50 in the experiment with SK-MEL-2 and in the experiment on SNB-19 were 3.75 µM (inactive) and 9.42 µM (inactive), respectively.

Regarding `CN(C)c1ccc(/C=C2/SC(=S)NC2=O)cc1`, the GI50 in the experiment with CAKI-1, in the experiment with SF-295, with UACC-257, in the experiment with HT-29, with HOP-92 and in the experiment on EKVX was > 100 µM (inactive) throughout. Also, the GI50 in the experiment with SW-620, with SF-268, with NCI-H23, with RPMI-8226, in the experiment on A498 and in the experiment on A549 was > 100 µM (inactive) each time. The GI50 in the experiment on OVCAR-5 was 21.9 µM (inactive); with MOLT-4, > 100 µM (inactive); with LOX IMVI, > 100 µM (inactive); in the experiment on Malme-3M it was > 100 µM (inactive); in the experiment on KM12, 50.7 µM (inactive); in the experiment with OVCAR-8 it was > 100 µM (inactive). Moreover, the GI50 with SK-MEL-2 and in the experiment on SNB-19 was > 100 µM (inactive) each time.

As to `C/C(=C1\N=C(c2ccccc2)OC1=O)c1ccccc1`, the GI50 in the experiment with CAKI-1, with SF-295, in the experiment with UACC-257, with HT-29, in the experiment with HOP-92 and in the experiment on EKVX was > 100 µM (inactive) in each case. Moreover, the GI50 in the experiment with SW-620, in the experiment with SF-268, in the experiment with NCI-H23, with RPMI-8226, in the experiment on A498 and in the experiment with A549 was > 100 µM (inactive) in each case. Besides, the GI50 in the experiment with OVCAR-5 is > 100 µM (inactive); in the experiment on MOLT-4 it was > 100 µM (inactive); with LOX IMVI, > 100 µM (inactive); in the experiment with Malme-3M it was > 100 µM (inactive); with KM12, > 100 µM (inactive); with OVCAR-8, 70.8 µM (inactive). The GI50 in the experiment on SK-MEL-2 and in the experiment with SNB-19 was > 100 µM (inactive) in each case.

`CCCCC1(N=[N+]=[N-])C(=O)c2cccc3c2N(CCC3)C1=O` (stereo not given): the GI50 in the experiment with CAKI-1, in the experiment on SF-295, in the experiment on UACC-257, in the experiment on HT-29, in the experiment with HOP-92 and in the experiment on EKVX was > 100 µM (inactive) in each case. Besides, the GI50 in the experiment with SW-620, in the experiment with SF-268, in the experiment on NCI-H23, with RPMI-8226, with A498 and in the experiment on A549 was > 100 µM (inactive) throughout. Also, the GI50 in the experiment on OVCAR-5, in the experiment on MOLT-4, with LOX IMVI, with Malme-3M, with KM12 and in the experiment on OVCAR-8 was > 100 µM (inactive) throughout. The GI50 with SK-MEL-2 and in the experiment with SNB-19 was > 100 µM (inactive) in each case.
